The values below come from US8846951B2 (AbbVie Inc., priority 2009, dated 2014).

Common to all, as to format: cell-based
Test [1] has as its target T1, 5HT2C receptors (Homo sapiens, UniProt P28335).
T1 sequence (P28335 33-458): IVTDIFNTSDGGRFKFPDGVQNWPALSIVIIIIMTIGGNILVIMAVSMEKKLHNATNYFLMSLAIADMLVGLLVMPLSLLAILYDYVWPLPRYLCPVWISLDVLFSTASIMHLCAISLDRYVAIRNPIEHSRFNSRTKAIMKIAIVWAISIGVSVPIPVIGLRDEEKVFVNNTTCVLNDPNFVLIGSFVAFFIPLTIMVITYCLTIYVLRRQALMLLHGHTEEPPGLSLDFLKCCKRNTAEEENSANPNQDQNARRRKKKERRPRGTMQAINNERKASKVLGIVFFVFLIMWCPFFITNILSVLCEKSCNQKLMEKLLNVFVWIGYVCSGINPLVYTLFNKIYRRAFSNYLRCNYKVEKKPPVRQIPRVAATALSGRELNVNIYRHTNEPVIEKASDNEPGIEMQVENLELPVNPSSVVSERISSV
In words: Human 5-HT2C functional assay in 1321N1 cells (intracellular calcium, FLIPR). The settings on record: 5-HT2c agonist activity, maximum calcium response. On the set-up: expressed in transfected cells; host or cells: 1321N1 cells. As to the method:
(ii) Human 5-HT2C Functional Assay in 1321N1 Cells
Functional activity was determined by testing the effect of the compounds on intracellular calcium levels in 1321N1 cells stably transfected with the human 5-HT2C receptor. Cells were seeded into 96-well plates at 50,000 cells/well and grown overnight in tissue culture medium (DMEM with Glutamax I (Invitrogen), containing 10% dFCS, 50 μg/mL Gentamicin, 400 μg/mL Geneticin) at 37° C. and 7% CO2. Growth medium was replaced by medium without dFCS for overnight incubation. Cells were loaded with a fluorescent calcium-sensitive dye in the presence of 1% probenicid according to the manufacturer's protocol (Fluo4 AM, Molecular Devices). Serial compound dilutions (final concentrations 10^−10 to 10^−5 M) were added to the cells either alone or in the presence of serotonin (10^−9 M) and the maximum calcium response was determined using a FLIPR instrument (Molecular Devices). Concentration-response curves were fitted using a four-parameter logistic equation (GraphPad Prism). The concentration at which the compound exerts half its maximal effect is named the ‘effective concentration 50’ or ‘EC50’ and is listed in Table 2.
(In general: Calcium flux is commonly read through the fluorescence of an indicator in the cells.)

The target in test [2] is T2, 5HT2B receptors (Homo sapiens, UniProt P41595).
T2 construct: expressed in transfected cells; host or cells: CHO-K1 cells
In words: Human 5-HT2B functional high throughput screening assay in CHO-K1 cells (calcium flux). The following applies: for EC50: CHO-K1 cells, calcium flux. The procedure, abridged: (§1)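 Serum-starved CHO-K1 cells carrying the receptor; Ca4 dye, 60 min RT. Test compound added after a 10 s baseline, fluorescence followed for 3 min. EC50 from 4-parameter fit; Emax given as % of serotonin effect.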

Test [3] concerns the target T1, 5HT2C receptors. In words: Human 5-HT2C functional high throughput screening assay in CHO-K1 cells (calcium flux). On the set-up: expressed in transfected cells; host or cells: CHO-K1 cells. The following applies: for EC50: CHO-K1 cells, calcium flux; for Emax: CHO-K1, 5-HT2C, maximum functional response as percentage relative to the effect of serotonin. In outline: as §1

[4] abbreviates: 5-HT2B agonist activity, read-out: EC50.
Setting [5] is: CHO-K1, 5-HT2B, maximum functional response as percentage relative to the effect of serotonin, read-out: Emax.
The mark [6] stands for this setting: 5-HT2C agonist activity, read-out: EC50.
Where [7] appears, read: 5-HT2B, maximum functional response as percentage relative to the effect of serotonin.

Where two headings read alike, the source gives them in different places.

T2 sequence (P41595 whole entry): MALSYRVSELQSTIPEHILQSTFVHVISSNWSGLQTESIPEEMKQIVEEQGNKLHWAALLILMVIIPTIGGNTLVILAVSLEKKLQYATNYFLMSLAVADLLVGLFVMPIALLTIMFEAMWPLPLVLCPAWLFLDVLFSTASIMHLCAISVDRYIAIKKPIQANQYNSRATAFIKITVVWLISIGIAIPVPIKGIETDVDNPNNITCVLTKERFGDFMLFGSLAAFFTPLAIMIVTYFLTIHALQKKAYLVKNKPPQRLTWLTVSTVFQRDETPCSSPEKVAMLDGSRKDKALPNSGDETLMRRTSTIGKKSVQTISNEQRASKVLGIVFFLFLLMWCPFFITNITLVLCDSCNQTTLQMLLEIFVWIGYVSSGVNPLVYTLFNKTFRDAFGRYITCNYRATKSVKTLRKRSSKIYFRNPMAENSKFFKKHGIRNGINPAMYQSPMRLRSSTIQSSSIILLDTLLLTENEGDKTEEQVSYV

A word on the EC50: it is the concentration giving half of the maximal effect. Consider `N#Cc1cccc(CN2C[C@H]3CNC(=O)c4ccccc4[C@@H]3C2)c1` (relative stereo) [Example 36, 3-((Trans-6-oxo-1,3a,4,5,6,10b-hexahydrobenzo[c]pyrrolo[3,4-e]azepin-2(3H)-yl)methyl)benzonitrile], for which the EC50 in test [1] is 77.2 nM.
The same measure, in the same setting: under `O=C1NC[C@@H]2CN(Cc3ccccc3)C[C@@H]2c2ccccc21` (relative stereo) [Example 3, Cis-2-benzyl-1,2,3,3a,4,5-hexahydrobenzo[c]pyrrolo[3,4-e]azepin-6(10bH)-one] stands 101 nM.
The Emax is the greatest response seen or fitted, relative to the assay's reference. On to `N#Cc1ccccc1S(=O)(=O)N1Cc2cccnc2[C@@H]2CNC[C@H]2C1` (relative stereo) [Example 355, 2-[Trans-7,7a,8,9,10,10a-hexahydropyrido[3,2-c]pyrrolo[3,4-e]azepin-6(5H)-ylsulfonyl]benzonitrile], for which the EC50 in test [2] (setting [4]) amounted to 6000 nM; in test [3] (setting [6]) it was 100 nM. Also, the Emax worked out at 10% in test [2] (setting [5]) and 90% in test [3] (read-out: Emax).
With `CN1C[C@@H]2CNC[C@H]2c2ccc(-c3cccc(CCO)c3)cc2C1=O` (relative stereo) [Example 189, Trans-8-(3-(2-hydroxyethyl)phenyl)-5-methyl-1,2,3,3a,4,5-hexahydrobenzo[e]pyrrolo[3,4-c]azepin-6(10bH)-one], the EC50 in test [2] (setting [4]) was greater than 10000 nM; in test [3] (setting [6]) it was 0.9 nM. In addition, the Emax result in test [2] (setting [7]) is “inactive”; in test [3] (read-out: Emax), greater than 120%.
On to `CCS(=O)(=O)c1cccc(-c2ccc3c(c2)C(=O)NC[C@@H]2CNC[C@@H]32)c1` (relative stereo) [Example 250, Trans-8-(3-(ethylsulfonyl)phenyl)-1,2,3,3a,4,5-hexahydrobenzo[c]pyrrolo[3,4-e]azepin-6(10bH)-one], for which the EC50 in test [2] (setting [4]) is greater than 10000 nM; in test [3] (setting [6]), 3 nM. Further, the Emax result is “inactive” in test [2] (setting [7]) and 105% in test [3] (read-out: Emax).
In the case of `c1cc(-c2ccncc2)c2c(c1)[C@H]1CNC[C@@H]1CCO2` (relative stereo) [Example 369, Trans-7-(pyridin-4-yl)-2,3,3a,4,5,10b-hexahydro-1H-[1]benzoxepino[4,5-c]pyrrole], the EC50 in test [2] (setting [4]) was greater than 10000 nM; in test [3] (setting [6]), 300 nM. The Emax entry in test [2] (setting [7]) was “inactive”; in test [3], 90%.
As to `Clc1cccc2c1NCC[C@@H]1CNC[C@@H]21` (relative stereo) [Example 392, Trans-7-chloro-1,2,3,3a,4,5,6,10b-octahydropyrrolo[3,4-d][1]benzazepine], the values for the maximal response (Emax) in test [2] (CHO-K1) and in test [3] were 65% and 100%, respectively. In addition, the EC50 in test [2] (EC50, 5-HT2B agonist activity) stood at 40 nM; in test [3] (EC50, 5-HT2C agonist activity), 0.7 nM.
Regarding `CS(=O)(=O)c1cccc(-c2ccc3c(c2)C(=O)NC[C@@H]2CNC[C@@H]32)c1` (relative stereo) [Example 227, Trans-8-(3-(methylsulfonyl)phenyl)-1,2,3,3a,4,5-hexahydrobenzo[c]pyrrolo[3,4-e]azepin-6(10bH)-one], the EC50 is greater than 10000 nM in test [2] (setting [4]) and 0.8 nM in test [3] (setting [6]). For the same compound, the results for the Emax result in test [2] (setting [7]) and in test [3] (read-out: Emax) were “inactive” and greater than 120%, respectively.
With `Cc1cccc2c1OCC[C@H]1CNC[C@H]21` (relative stereo) [Example 291, Trans-7-methyl-2,3,3a,4,5,10b-hexahydro-1H-[1]benzoxepino[4,5-c]pyrrole], the Emax was 60% in test [2] (CHO-K1) and 95% in test [3]. The EC50 in test [2] (EC50, 5-HT2B agonist activity) was 10 nM; in test [3] (EC50, 5-HT2C agonist activity), 0.4 nM.
In the case of `Cc1cc(-c2ccc3c(c2)C(=O)NC[C@@H]2CN(C)C[C@@H]32)ccc1F` (relative stereo) [Example 314, Trans-8-(4-fluoro-3-methylphenyl)-2-methyl-2,3,3a,4,5,10b-hexahydropyrrolo[3,4-d][2]benzazepin-6(1H)-one], the EC50 in test [2] (setting [4]) was greater than 10000 nM; in test [3] (setting [6]), 3 nM. Besides, the maximal response (Emax) result in test [2] (setting [7]) is “inactive”; in test [3] (read-out: Emax), 95%.
`O=S(=O)(c1ccccc1C(F)(F)F)N1Cc2cccnc2[C@@H]2CNC[C@H]2C1` (relative stereo) [Example 365, Trans-6-{[2-(trifluoromethyl)phenyl]sulfonyl}-5,6,7,7a,8,9,10,10a-octahydropyrido[3,2-c]pyrrolo[3,4-e]azepine]: the EC50 in test [2] (setting [4]) was 800 nM; in test [3] (setting [6]) it was 500 nM. Also, the Emax is 30% in test [2] (setting [5]) and 80% in test [3] (read-out: Emax).
For `CN1C[C@H]2CNC(=O)c3cccc(F)c3[C@@H]2C1` (relative stereo) [Example 89, Trans-10-fluoro-2-methyl-1,2,3,3a,4,5-hexahydrobenzo[e]pyrrolo[3,4-c]azepin-6(10bH)-one], the Emax in test [2] (CHO-K1) is 33%; in test [3], greater than 120%. Further, the EC50 in test [2] (EC50, 5-HT2B agonist activity) came out at 560 nM; in test [3] (EC50, 5-HT2C agonist activity), 11.5 nM.
For the compound `O=S(=O)(c1ccccc1OC(F)(F)F)N1Cc2cccnc2[C@@H]2CNC[C@H]2C1` (relative stereo) [Example 364, Trans-6-{[2-(trifluoromethoxy)phenyl]sulfonyl}-5,6,7,7a,8,9,10,10a-octahydropyrido[3,2-c]pyrrolo[3,4-e]azepine], the EC50 is 90 nM in test [2] (setting [4]) and 100 nM in test [3] (setting [6]). For the same compound, the Emax worked out at 90% in test [2] (setting [5]) and 85% in test [3] (read-out: Emax).
For the compound `Fc1ccc(-c2cccc3c2OCC[C@H]2CNC[C@H]32)cc1` (relative stereo) [Example 399, Trans-7-(4-fluorophenyl)-2,3,3a,4,5,10b-hexahydro-1H-[1]benzoxepino[4,5-c]pyrrole], the EC50 in test [2] (setting [4]) was greater than 10000 nM; in test [3] (setting [6]) it was 90 nM. In addition, the Emax result in test [2] (setting [7]) is “inactive”; in test [3] (read-out: Emax), 90%.
In the same order, the values of `COc1ccc2c(c1)C(=O)NC[C@@H]1CN(Cc3ccccc3)C[C@H]21` (relative stereo) [Example 130, Cis-2-benzyl-8-methoxy-1,2,3,3a,4,5-hexahydrobenzo[e]pyrrolo[3,4-c]azepin-6(10bH)-one] are greater than 10000 nM, 900 nM, “inactive” and 100%.
For `CCCC(O)c1cccc(-c2ccc3c(c2)C(=O)NC[C@H]2CN(C)C[C@H]32)c1` (stereo partly drawn) [Example 313, (3aS,10bS)-8-[3-(1-Hydroxybutyl)phenyl]-2-methyl-2,3,3a,4,5,10b-hexahydropyrrolo[3,4-d][2]benzazepin-6(1H)-one] the same measures were greater than 10000 nM, 0.8 nM, “inactive” and 95%.
As for `O=C1NC[C@@H]2CNC[C@H]2c2ncccc21` (relative stereo) [Example 153, Trans-7,7a,8,9,10,10a-hexahydropyrido[2,3-e]pyrrolo[3,4-c]azepin-5(6H)-one], the Emax in test [2] (CHO-K1) is 30%; in test [3], greater than 120%. Further, the EC50 in test [2] (EC50, 5-HT2B agonist activity) was greater than 10000 nM; in test [3] (EC50, 5-HT2C agonist activity) it was 80 nM.
Regarding `CN1C[C@H]2CNC(=O)c3cc(-c4ccc(F)c(F)c4)ccc3[C@@H]2C1` (relative stereo) [Example 78, Trans-8-(3,4-difluorophenyl)-2-methyl-1,2,3,3a,4,5-hexahydrobenzo[e]pyrrolo[3,4-c]azepin-6(10bH)-one], the figures for the EC50 in test [2] (setting [4]) and in test [3] (setting [6]) were greater than 10000 nM and 6.6 nM, respectively. Besides, the values for the Emax result in test [2] (setting [7]) and in test [3] (read-out: Emax) were “inactive” and greater than 120%, respectively.
For the compound `CCC(C)Oc1ccc2c(c1)C(=O)NC[C@@H]1CN(C)C[C@@H]21` (relative stereo) [Example 170, Trans-8-sec-butoxy-2-methyl-1,2,3,3a,4,5-hexahydrobenzo[e]pyrrolo[3,4-c]azepin-6(10bH)-one], the Emax result in test [2] (setting [7]) is “inactive”; in test [3], 120%. Further, the EC50 in test [2] (EC50, 5-HT2B agonist activity) is greater than 10000 nM; in test [3] (EC50, 5-HT2C agonist activity), 70 nM.
